Source: the supplement of paper PMC12463676, “Small-molecule dissolution of stress granules by redox modulation benefits ALS models” (Nature Chemical Biology, 2025)

Experiments:
lipoamide = compound: NC(=O)CCCCC1CCSS1 [lipoamide]; assay: thermal stability z-score vs DMSO; higher = more thermally stabilized by treatment; details: HeLa, lipoamide concentration 100 µM
Method: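 Cellular thermal proteome profiling in HeLa cells. Cells were treated with 100 µM lipoamide for 1 h, with or without 1 mM arsenate for a further 1 h, then heated to ten temperatures (37-66.3 °C), and soluble protein was quantified by TMT mass spectrometry relative to 0.1% DMSO controls. The thermal stability score (sum of log2 fold changes minus the abundance score) was transformed to a z-score; mean of n = 3 experiments.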

potassium arsenate = compound: O=[As]([O-])(O)O.[K+] [potassium arsenate]; assay: as above; details: HeLa; arsenate concentration 1 mM
Method: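 Cellular thermal proteome profiling in HeLa cells treated with 1 mM arsenate for 1 h (DMSO pretreatment), heated to ten temperatures (37-66.3 °C). Soluble protein was quantified by TMT mass spectrometry relative to DMSO controls; the thermal stability score was transformed to a z-score; mean of n = 3 experiments.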

[1] = arsenate co-treatment: 1 mM arsenate 1 h
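Note: each temperature applied for 3 min, abundance score taken as mean log2 fold change at the two lowest temperatures, z-score obtained by mean subtraction and division by SD.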

MFAP1 (UniProt P55081)
thermal stability z-score (lipoamide; [1]): 0.755 | thermal stability z-score (lipoamide; arsenate co-treatment: none): 0.245 | thermal stability z-score (potassium arsenate): 1.73

GTF2I (UniProt P78347)
thermal stability z-score (lipoamide; [1]): -0.117 | thermal stability z-score (lipoamide; arsenate co-treatment: none): 0.0929 | thermal stability z-score (potassium arsenate): -0.472

EMD (UniProt P50402)
Chain of UniProt P50402 (P50402 whole entry): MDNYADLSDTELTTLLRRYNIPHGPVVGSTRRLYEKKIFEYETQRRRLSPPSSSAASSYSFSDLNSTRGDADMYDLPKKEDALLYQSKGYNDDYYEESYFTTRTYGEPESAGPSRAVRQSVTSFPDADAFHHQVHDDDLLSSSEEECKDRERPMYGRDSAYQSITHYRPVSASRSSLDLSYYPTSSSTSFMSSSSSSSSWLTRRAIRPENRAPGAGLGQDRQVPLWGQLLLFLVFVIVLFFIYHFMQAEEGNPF
thermal stability z-score (lipoamide; [1]): -0.75 | thermal stability z-score (lipoamide; arsenate co-treatment: none): -0.633 | thermal stability z-score (potassium arsenate): -0.405

PRKRIP1 (UniProt Q9H875)
thermal stability z-score (lipoamide; [1]): 0.524 | thermal stability z-score (lipoamide; arsenate co-treatment: none): 0.599 | thermal stability z-score (potassium arsenate): 0.247

ENO3 (UniProt P13929)
thermal stability z-score (lipoamide; [1]): 0.308 | thermal stability z-score (lipoamide; arsenate co-treatment: none): -0.4 | thermal stability z-score (potassium arsenate): -0.432

RABL3 (UniProt Q5HYI8)
thermal stability z-score (lipoamide; [1]): -0.437 | thermal stability z-score (lipoamide; arsenate co-treatment: none): -0.307 | thermal stability z-score (potassium arsenate): -0.0747

UIMC1 (UniProt Q96RL1)
thermal stability z-score (lipoamide; [1]): -0.168 | thermal stability z-score (lipoamide; arsenate co-treatment: none): 0.424 | thermal stability z-score (potassium arsenate): 0.872

CLCC1 (UniProt Q96S66)
thermal stability z-score (lipoamide; [1]): -5.63 | thermal stability z-score (lipoamide; arsenate co-treatment: none): -5.9 | thermal stability z-score (potassium arsenate): 0.408

CHUK (UniProt O15111)
thermal stability z-score (lipoamide; [1]): 0.887 | thermal stability z-score (lipoamide; arsenate co-treatment: none): 0.727 | thermal stability z-score (potassium arsenate): 0.578

LARS (UniProt Q9P2J5)
Chain of UniProt Q9P2J5 (Q9P2J5 whole entry, looked up): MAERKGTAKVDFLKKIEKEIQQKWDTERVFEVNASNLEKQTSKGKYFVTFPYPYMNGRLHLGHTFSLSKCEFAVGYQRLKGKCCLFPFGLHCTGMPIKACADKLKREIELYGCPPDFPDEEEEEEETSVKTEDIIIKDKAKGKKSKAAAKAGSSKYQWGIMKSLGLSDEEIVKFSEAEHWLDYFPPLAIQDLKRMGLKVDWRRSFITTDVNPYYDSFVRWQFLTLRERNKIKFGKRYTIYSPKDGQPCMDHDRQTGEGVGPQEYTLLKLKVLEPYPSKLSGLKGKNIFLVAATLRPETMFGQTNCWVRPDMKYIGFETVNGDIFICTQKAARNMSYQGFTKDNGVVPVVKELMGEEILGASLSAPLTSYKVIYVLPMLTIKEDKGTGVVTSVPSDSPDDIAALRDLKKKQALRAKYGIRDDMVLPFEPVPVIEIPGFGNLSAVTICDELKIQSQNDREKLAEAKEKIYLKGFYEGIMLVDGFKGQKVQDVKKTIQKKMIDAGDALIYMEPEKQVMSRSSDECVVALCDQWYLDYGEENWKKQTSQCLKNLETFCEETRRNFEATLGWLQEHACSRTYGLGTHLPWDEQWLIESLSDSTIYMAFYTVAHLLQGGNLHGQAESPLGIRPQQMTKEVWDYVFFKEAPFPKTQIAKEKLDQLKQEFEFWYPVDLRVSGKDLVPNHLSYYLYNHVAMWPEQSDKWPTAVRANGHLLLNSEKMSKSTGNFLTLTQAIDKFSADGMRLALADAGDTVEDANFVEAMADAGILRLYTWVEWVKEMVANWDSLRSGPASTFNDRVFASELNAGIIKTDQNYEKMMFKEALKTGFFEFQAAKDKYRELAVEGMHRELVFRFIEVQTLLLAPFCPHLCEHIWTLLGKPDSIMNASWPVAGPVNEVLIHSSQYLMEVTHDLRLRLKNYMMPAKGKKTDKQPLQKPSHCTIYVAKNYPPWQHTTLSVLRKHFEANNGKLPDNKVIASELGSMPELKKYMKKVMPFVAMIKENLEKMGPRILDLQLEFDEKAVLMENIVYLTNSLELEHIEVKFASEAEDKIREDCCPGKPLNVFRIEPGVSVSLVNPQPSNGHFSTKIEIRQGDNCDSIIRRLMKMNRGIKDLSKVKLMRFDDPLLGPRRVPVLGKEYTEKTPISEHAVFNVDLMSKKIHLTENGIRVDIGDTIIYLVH
thermal stability z-score (lipoamide; [1]): -0.63 | thermal stability z-score (lipoamide; arsenate co-treatment: none): 0.0502 | thermal stability z-score (potassium arsenate): 0.86

MTRF1L (UniProt Q9UGC7)
thermal stability z-score (lipoamide; [1]): -1.57 | thermal stability z-score (lipoamide; arsenate co-treatment: none): -0.343 | thermal stability z-score (potassium arsenate): 0.646

THOC2 (UniProt Q8NI27)
thermal stability z-score (lipoamide; [1]): -0.212 | thermal stability z-score (lipoamide; arsenate co-treatment: none): -0.102 | thermal stability z-score (potassium arsenate): 0.273

KIF11 (UniProt P52732)
thermal stability z-score (lipoamide; [1]): -0.347 | thermal stability z-score (lipoamide; arsenate co-treatment: none): 0.00677 | thermal stability z-score (potassium arsenate): 1.19

ITFG1 (UniProt Q8TB96)
thermal stability z-score (lipoamide; [1]): -0.794 | thermal stability z-score (lipoamide; arsenate co-treatment: none): -0.597 | thermal stability z-score (potassium arsenate): 0.61

LUC7L (UniProt Q9NQ29)
thermal stability z-score (lipoamide; [1]): -0.243 | thermal stability z-score (lipoamide; arsenate co-treatment: none): -0.433 | thermal stability z-score (potassium arsenate): -1.2

AGFG1 (UniProt P52594)
thermal stability z-score (lipoamide; [1]): -0.348 | thermal stability z-score (lipoamide; arsenate co-treatment: none): -0.424 | thermal stability z-score (potassium arsenate): -0.387

BCL10 (UniProt O95999)
thermal stability z-score (lipoamide; [1]): 0.00285 | thermal stability z-score (lipoamide; arsenate co-treatment: none): 0.509 | thermal stability z-score (potassium arsenate): 2.16

DIAPH1 (UniProt O60610)
thermal stability z-score (lipoamide; [1]): 0.466 | thermal stability z-score (lipoamide; arsenate co-treatment: none): 0.801 | thermal stability z-score (potassium arsenate): -0.58

ZFPL1 (UniProt O95159)
thermal stability z-score (lipoamide; [1]): -0.552 | thermal stability z-score (lipoamide; arsenate co-treatment: none): -1.06 | thermal stability z-score (potassium arsenate): -1.02

FEN1 (UniProt P39748)
thermal stability z-score (lipoamide; [1]): -0.489 | thermal stability z-score (lipoamide; arsenate co-treatment: none): 0.469 | thermal stability z-score (potassium arsenate): 0.572

MAP7D3 (UniProt Q8IWC1)
thermal stability z-score (lipoamide; [1]): -0.18 | thermal stability z-score (lipoamide; arsenate co-treatment: none): -0.509 | thermal stability z-score (potassium arsenate): -1.36

IRAK4 (UniProt Q9NWZ3)
thermal stability z-score (lipoamide; [1]): -0.11 | thermal stability z-score (lipoamide; arsenate co-treatment: none): -0.0699 | thermal stability z-score (potassium arsenate): -0.11

RPS13 (UniProt P62277)
thermal stability z-score (lipoamide; [1]): 0.784 | thermal stability z-score (lipoamide; arsenate co-treatment: none): 0.463 | thermal stability z-score (potassium arsenate): -1.11

NCAPD3 (UniProt P42695)
thermal stability z-score (lipoamide; [1]): 0.394 | thermal stability z-score (lipoamide; arsenate co-treatment: none): 0.105 | thermal stability z-score (potassium arsenate): 0.161

TRMT5 (UniProt Q32P41)
thermal stability z-score (lipoamide; [1]): -0.124 | thermal stability z-score (lipoamide; arsenate co-treatment: none): 0.0028 | thermal stability z-score (potassium arsenate): -0.112

SCPEP1 (UniProt Q9HB40)
thermal stability z-score (lipoamide; [1]): -0.372 | thermal stability z-score (lipoamide; arsenate co-treatment: none): 0.187 | thermal stability z-score (potassium arsenate): -0.196

STXBP1 (UniProt P61764)
thermal stability z-score (lipoamide; [1]): -0.206 | thermal stability z-score (lipoamide; arsenate co-treatment: none): 0.0929 | thermal stability z-score (potassium arsenate): 0.156

TUBG1 (UniProt P23258)
thermal stability z-score (lipoamide; [1]): 0.135 | thermal stability z-score (lipoamide; arsenate co-treatment: none): -0.106 | thermal stability z-score (potassium arsenate): 0.415

HIRIP3 (UniProt Q9BW71)
Chain of UniProt Q9BW71 (Q9BW71 whole entry): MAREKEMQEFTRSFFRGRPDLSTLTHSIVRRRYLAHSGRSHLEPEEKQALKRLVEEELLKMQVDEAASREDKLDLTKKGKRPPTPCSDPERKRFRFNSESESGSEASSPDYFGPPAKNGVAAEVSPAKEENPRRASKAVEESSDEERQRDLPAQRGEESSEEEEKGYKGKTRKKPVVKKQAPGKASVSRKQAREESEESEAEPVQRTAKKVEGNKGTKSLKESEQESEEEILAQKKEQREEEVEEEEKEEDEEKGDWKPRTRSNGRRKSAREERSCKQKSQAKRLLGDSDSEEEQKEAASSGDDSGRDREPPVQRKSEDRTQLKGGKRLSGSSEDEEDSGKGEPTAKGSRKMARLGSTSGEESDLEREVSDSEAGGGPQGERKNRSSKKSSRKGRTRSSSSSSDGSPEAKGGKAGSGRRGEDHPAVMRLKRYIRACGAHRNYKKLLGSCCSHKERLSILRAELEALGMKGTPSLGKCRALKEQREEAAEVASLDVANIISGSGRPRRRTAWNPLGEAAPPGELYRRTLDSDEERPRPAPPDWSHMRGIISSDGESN
thermal stability z-score (lipoamide; [1]): -0.148 | thermal stability z-score (lipoamide; arsenate co-treatment: none): 0.462 | thermal stability z-score (potassium arsenate): 0.468

RCL1 (UniProt Q9Y2P8)
thermal stability z-score (lipoamide; [1]): 1.4 | thermal stability z-score (lipoamide; arsenate co-treatment: none): 0.192 | thermal stability z-score (potassium arsenate): 2.29

MOCS3 (UniProt O95396)
Chain of UniProt O95396 (O95396 whole entry): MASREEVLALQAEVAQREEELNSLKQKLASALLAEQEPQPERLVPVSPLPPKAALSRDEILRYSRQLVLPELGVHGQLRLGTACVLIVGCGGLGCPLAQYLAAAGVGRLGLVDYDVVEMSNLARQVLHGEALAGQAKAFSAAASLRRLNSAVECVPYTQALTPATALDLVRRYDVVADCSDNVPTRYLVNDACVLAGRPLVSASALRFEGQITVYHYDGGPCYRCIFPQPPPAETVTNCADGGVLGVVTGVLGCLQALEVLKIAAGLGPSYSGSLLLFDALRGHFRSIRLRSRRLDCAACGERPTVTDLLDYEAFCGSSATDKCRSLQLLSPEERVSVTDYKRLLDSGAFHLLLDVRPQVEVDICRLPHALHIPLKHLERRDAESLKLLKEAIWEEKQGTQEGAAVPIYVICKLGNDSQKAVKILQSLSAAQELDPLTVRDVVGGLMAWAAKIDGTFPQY
thermal stability z-score (lipoamide; [1]): 0.01 | thermal stability z-score (lipoamide; arsenate co-treatment: none): -0.0171 | thermal stability z-score (potassium arsenate): -0.0988

VPS13D (UniProt Q5THJ4)
thermal stability z-score (lipoamide; [1]): 0.236 | thermal stability z-score (lipoamide; arsenate co-treatment: none): 0.0716 | thermal stability z-score (potassium arsenate): -0.13

SKA2 (UniProt Q8WVK7)
thermal stability z-score (lipoamide; [1]): -0.397 | thermal stability z-score (lipoamide; arsenate co-treatment: none): -0.0647 | thermal stability z-score (potassium arsenate): -0.271

EHD2 (UniProt Q9NZN4)
Chain of UniProt Q9NZN4 (Q9NZN4 whole entry): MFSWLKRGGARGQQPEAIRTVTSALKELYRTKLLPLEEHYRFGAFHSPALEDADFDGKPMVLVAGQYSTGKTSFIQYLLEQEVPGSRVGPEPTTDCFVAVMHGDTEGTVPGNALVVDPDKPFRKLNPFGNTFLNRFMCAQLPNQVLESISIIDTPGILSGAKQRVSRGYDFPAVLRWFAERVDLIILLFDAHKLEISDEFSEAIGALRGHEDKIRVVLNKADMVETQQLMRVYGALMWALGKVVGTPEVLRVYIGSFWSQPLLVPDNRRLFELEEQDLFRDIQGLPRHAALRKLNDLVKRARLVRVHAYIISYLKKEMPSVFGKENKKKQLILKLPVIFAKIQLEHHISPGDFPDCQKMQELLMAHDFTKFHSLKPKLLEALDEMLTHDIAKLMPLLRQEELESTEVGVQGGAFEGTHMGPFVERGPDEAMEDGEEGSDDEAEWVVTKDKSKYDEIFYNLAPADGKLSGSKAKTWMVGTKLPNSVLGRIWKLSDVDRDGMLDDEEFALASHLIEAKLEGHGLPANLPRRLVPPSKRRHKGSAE
thermal stability z-score (lipoamide; [1]): -0.612 | thermal stability z-score (lipoamide; arsenate co-treatment: none): -0.489 | thermal stability z-score (potassium arsenate): -0.781

DNAJC2 (UniProt Q99543)
thermal stability z-score (lipoamide; [1]): -0.0501 | thermal stability z-score (lipoamide; arsenate co-treatment: none): 0.0208 | thermal stability z-score (potassium arsenate): 1.09

CANX (UniProt P27824)
thermal stability z-score (lipoamide; [1]): -3.78 | thermal stability z-score (lipoamide; arsenate co-treatment: none): -3.12 | thermal stability z-score (potassium arsenate): 0.851

M6PR (UniProt P20645)
thermal stability z-score (lipoamide; [1]): 0.401 | thermal stability z-score (lipoamide; arsenate co-treatment: none): -0.0131 | thermal stability z-score (potassium arsenate): 0.167

TMEM109 (UniProt Q9BVC6)
thermal stability z-score (lipoamide; [1]): 0.0915 | thermal stability z-score (lipoamide; arsenate co-treatment: none): 0.27 | thermal stability z-score (potassium arsenate): 0.115

SSBP1 (UniProt Q04837)
thermal stability z-score (lipoamide; [1]): 1.55 | thermal stability z-score (lipoamide; arsenate co-treatment: none): 0.76 | thermal stability z-score (potassium arsenate): 1.94

FTO (UniProt Q9C0B1)
thermal stability z-score (lipoamide; [1]): -0.0697 | thermal stability z-score (lipoamide; arsenate co-treatment: none): -0.447 | thermal stability z-score (potassium arsenate): 1.38

MTHFD2 (UniProt P13995)
thermal stability z-score (lipoamide; [1]): -1.43 | thermal stability z-score (lipoamide; arsenate co-treatment: none): 0.0012 | thermal stability z-score (potassium arsenate): 0.474

MYO6 (UniProt Q9UM54)
Chain of UniProt Q9UM54 (Q9UM54 whole entry): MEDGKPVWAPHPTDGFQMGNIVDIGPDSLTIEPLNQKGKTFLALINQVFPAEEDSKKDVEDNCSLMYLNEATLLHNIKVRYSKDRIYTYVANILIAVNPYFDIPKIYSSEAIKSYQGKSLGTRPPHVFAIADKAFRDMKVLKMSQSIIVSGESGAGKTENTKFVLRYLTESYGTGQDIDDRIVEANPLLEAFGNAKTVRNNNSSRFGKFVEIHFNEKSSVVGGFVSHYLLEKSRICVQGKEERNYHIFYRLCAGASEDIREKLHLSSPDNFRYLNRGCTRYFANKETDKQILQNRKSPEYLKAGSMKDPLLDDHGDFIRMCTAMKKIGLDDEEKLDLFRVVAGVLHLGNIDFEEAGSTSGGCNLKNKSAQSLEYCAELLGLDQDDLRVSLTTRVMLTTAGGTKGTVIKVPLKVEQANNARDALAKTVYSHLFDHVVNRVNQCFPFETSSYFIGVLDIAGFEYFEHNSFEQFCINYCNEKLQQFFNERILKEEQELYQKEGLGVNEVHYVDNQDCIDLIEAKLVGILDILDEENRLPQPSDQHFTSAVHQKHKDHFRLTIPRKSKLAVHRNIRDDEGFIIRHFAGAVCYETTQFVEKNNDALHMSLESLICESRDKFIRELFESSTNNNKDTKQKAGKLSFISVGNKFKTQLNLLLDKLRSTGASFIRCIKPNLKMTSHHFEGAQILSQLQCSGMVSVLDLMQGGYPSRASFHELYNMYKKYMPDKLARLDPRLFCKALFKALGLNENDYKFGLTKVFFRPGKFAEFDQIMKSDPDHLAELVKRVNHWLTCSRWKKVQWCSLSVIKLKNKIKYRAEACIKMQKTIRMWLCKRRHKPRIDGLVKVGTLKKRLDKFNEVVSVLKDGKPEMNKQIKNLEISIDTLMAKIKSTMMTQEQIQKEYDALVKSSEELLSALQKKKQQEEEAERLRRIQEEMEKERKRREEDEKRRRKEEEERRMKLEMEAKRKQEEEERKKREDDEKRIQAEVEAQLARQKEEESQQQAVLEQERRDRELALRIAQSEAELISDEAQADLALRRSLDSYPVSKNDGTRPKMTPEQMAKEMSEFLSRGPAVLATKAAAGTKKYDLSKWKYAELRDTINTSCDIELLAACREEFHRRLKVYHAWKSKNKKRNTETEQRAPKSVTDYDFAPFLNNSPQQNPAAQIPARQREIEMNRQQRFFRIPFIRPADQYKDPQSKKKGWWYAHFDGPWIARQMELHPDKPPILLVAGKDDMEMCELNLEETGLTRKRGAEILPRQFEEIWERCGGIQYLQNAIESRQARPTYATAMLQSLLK
thermal stability z-score (lipoamide; [1]): 0.203 | thermal stability z-score (lipoamide; arsenate co-treatment: none): 0.26 | thermal stability z-score (potassium arsenate): -0.115

TBRG4 (UniProt Q969Z0)
thermal stability z-score (lipoamide; [1]): -0.625 | thermal stability z-score (lipoamide; arsenate co-treatment: none): -0.116 | thermal stability z-score (potassium arsenate): 0.462

NME6 (UniProt O75414)
thermal stability z-score (lipoamide; [1]): 0.102 | thermal stability z-score (lipoamide; arsenate co-treatment: none): 0.493 | thermal stability z-score (potassium arsenate): 0.083

SNCG (UniProt O76070)
thermal stability z-score (lipoamide; [1]): 1.49 | thermal stability z-score (lipoamide; arsenate co-treatment: none): 0.999 | thermal stability z-score (potassium arsenate): 0.0455

C8ORF33 (UniProt Q9H7E9)
thermal stability z-score (lipoamide; [1]): 0.833 | thermal stability z-score (lipoamide; arsenate co-treatment: none): -0.384 | thermal stability z-score (potassium arsenate): 1.19

SUPT4H1 (UniProt P63272)
thermal stability z-score (lipoamide; [1]): -0.0276 | thermal stability z-score (lipoamide; arsenate co-treatment: none): -0.173 | thermal stability z-score (potassium arsenate): -0.164

COX5A (UniProt P20674)
thermal stability z-score (lipoamide; [1]): 2.24 | thermal stability z-score (lipoamide; arsenate co-treatment: none): 1.82 | thermal stability z-score (potassium arsenate): 1.36

NAF1 (UniProt Q96HR8)
thermal stability z-score (lipoamide; [1]): 0.316 | thermal stability z-score (lipoamide; arsenate co-treatment: none): 0.23 | thermal stability z-score (potassium arsenate): 0.149

AP1M1 (UniProt Q9BXS5)
Chain of UniProt Q9BXS5 (Q9BXS5 whole entry): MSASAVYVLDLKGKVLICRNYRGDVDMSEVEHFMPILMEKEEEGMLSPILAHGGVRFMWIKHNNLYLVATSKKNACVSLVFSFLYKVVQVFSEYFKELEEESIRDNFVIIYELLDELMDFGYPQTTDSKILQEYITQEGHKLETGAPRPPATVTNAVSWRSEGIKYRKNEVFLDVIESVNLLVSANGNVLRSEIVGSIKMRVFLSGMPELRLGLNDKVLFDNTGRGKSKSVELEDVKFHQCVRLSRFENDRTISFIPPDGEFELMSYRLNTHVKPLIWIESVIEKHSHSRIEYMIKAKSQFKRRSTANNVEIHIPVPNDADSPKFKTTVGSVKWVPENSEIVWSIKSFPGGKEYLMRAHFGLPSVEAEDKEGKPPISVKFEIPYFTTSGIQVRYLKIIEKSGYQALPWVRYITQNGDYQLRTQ
thermal stability z-score (lipoamide; [1]): 0.126 | thermal stability z-score (lipoamide; arsenate co-treatment: none): -0.43 | thermal stability z-score (potassium arsenate): 0.791

NBN (UniProt O60934)
thermal stability z-score (lipoamide; [1]): 0.219 | thermal stability z-score (lipoamide; arsenate co-treatment: none): 0.275 | thermal stability z-score (potassium arsenate): -0.469

PPP4R1 (UniProt Q8TF05)
thermal stability z-score (lipoamide; [1]): 0.26 | thermal stability z-score (lipoamide; arsenate co-treatment: none): 0.0864 | thermal stability z-score (potassium arsenate): 0.0118

TTF2 (UniProt Q9UNY4)
thermal stability z-score (lipoamide; [1]): -1.12 | thermal stability z-score (lipoamide; arsenate co-treatment: none): 0.461 | thermal stability z-score (potassium arsenate): -0.0154

BAG3 (UniProt O95817)
thermal stability z-score (lipoamide; [1]): -0.145 | thermal stability z-score (lipoamide; arsenate co-treatment: none): 0.303 | thermal stability z-score (potassium arsenate): 0.236

ALKBH4 (UniProt Q9NXW9)
Chain of UniProt Q9NXW9 (Q9NXW9 whole entry): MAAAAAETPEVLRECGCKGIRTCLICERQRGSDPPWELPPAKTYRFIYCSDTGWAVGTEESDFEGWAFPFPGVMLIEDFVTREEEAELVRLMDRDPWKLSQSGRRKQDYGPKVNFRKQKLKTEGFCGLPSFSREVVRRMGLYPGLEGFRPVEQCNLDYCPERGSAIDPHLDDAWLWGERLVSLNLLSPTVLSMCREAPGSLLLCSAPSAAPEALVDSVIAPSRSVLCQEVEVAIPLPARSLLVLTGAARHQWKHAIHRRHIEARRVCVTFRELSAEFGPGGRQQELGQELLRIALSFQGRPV
thermal stability z-score (lipoamide; [1]): 0.0364 | thermal stability z-score (lipoamide; arsenate co-treatment: none): 0.0782 | thermal stability z-score (potassium arsenate): -0.163
